The conditions of data set [1]: from COC(=O)c1c(CCCI)c2ccc(Cl)c(-c3c(CN(Cc4cc(CCc5cc(O)c6ccccc6c5)n(C)n4)C(=O)OC(C)(C)C)nn4c3CCC4)c2n1C; ether bond; 21-membered ring; K2CO3; MeCN; 3.61 mM; 60.0 °C.
The target of another data set is Mcl-1 (Homo sapiens, UniProt Q07820). Nature of the data set: Mcl-1 Homogeneous Time Resolved Fluorescence (HTRF) binding assay.
Data set [2] deals with NCI-H929 (ATCC CRL-9068) cells. Nature of the data set: NCI-H929 cell proliferation assay (CellTiter-Glo). Conditions: 72 h of compound treatment. The data set is classed as cell-based. The procedure: Cell proliferation was measured using the CellTiter-Glo® Luminescent Cell Viability Assay. The assay involved the addition of a single reagent (CellTiter-Glo® Reagent) directly to cells cultured in serum-supplemented medium.
Each compound evaluated was prepared as a DMSO stock solution (10 mM). Compounds were tested in duplicate on each plate, with a 10-point serial dilution curve (1:3 dilution). Compound treatment ([…]) was added from the compound dilution plate to the cell plate. The highest compound concentration was 10 μM (final), with a 0.1% final DMSO concentration. Plates were then incubated at 37° C., 5% CO2. After 72 h of compound treatment, cell plates were equilibrated at rt for approximately 30 mins. An equi-volume amount of CellTiter-Glo® Reagent (40 μL) was added to each well. Plates were mixed for 2 mins on an orbital shaker to induce cell lysis and then incubated at rt for 10 mins to stabilize the luminescent signal. Luminescence was recorded using an Envision plate reader according to CellTiter-Glo protocol. IC50 of each compound was calculated using GraphPad Prism by nonlinear regression analysis.

Setting [3] is: HTRF, 4 nM Mcl-1, 100 nM FAM-Bak peptide, 10-dose, singlicate, read-out: Mcl-1 IC50.

These results are taken from patent publication US20220144854A1, “MACROCYCLIC COMPOUNDS” (ZENO MANAGEMENT, INC., priority 2019, published 2022).

Where two headings read alike, the source gives them in different places.

Chain of Mcl-1 (Q07820 whole entry): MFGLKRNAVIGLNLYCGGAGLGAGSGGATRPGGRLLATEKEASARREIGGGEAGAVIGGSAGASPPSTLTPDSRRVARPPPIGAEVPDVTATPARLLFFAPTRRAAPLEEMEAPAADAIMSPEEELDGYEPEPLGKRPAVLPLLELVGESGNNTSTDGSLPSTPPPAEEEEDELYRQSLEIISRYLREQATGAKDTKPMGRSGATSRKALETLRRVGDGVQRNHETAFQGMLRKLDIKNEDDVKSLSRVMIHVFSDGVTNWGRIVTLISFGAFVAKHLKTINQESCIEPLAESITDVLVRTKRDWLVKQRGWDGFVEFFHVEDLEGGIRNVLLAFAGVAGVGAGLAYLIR

Take `COC(=O)c1c2c3ccc(Cl)c(c3n1C)-c1c(nn3c1CCC3)CN(C(=O)OC(C)(C)C)Cc1cc(n(C)n1)CCc1cc(c3ccccc3c1)OCCC2`: in data set [1], the ring closure, isolated yield is 40%.

Usually IC50 stands for the midpoint of a concentration-inhibition curve. With `Cn1nc2cc1CSc1cc(c3ccccc3c1)OCCCc1c(C(=O)O)n(C)c3c(c(Cl)ccc13)-c1c(nn3c1CSC3)CSC2` (single isomer, unassigned) [Example 5B, (Z)-1^6-Chloro-1^1,6^1-dimethyl-1^1H,2^4H,2^6H,6^1H-10-oxa-4,8-dithia-2(3,2)-pyrazolo[1,5-c]thiazola-1(7,3)-indola-6(3,5)-pyrazola-9(3,1)-naphthalenacyclotridecaphane-1^2-carboxylic acid], the IC50 on Mcl-1 (setting [3]) is more than 100 nM; in data set [2], more than 1000 nM.

Take `Cc1[nH]nc2c1-c1c(Cl)ccc3c(c(C(=O)O)n(C)c13)CCCOc1cc(cc3ccccc13)SCc1cc(nn1C)CSC2` (single isomer, unassigned) [Example 6A, (Z)-1^6-Chloro-1^1,2^5,6^1-trimethyl-1^1H,2^1H,6^1H-10-oxa-4,8-dithia-1(7,3)-indola-2(4,3),6(3,5)-dipyrazola-9(3,1)-naphthalenacyclotridecaphane-1^2-carboxylic acid]: the IC50 was less than 10 nM at Mcl-1 (setting [3]) and less than 100 nM in data set [2]. For `Cc1[nH]nc2c1-c1c(Cl)ccc3c(c(C(=O)O)n(C)c13)CCCOc1cc(cc3ccccc13)SCc1cc(nn1C)CSC2` (single isomer, unassigned) [Example 6B, (Z)-1^6-Chloro-1^1,2^5,6^1-trimethyl-1^1H,2^1H,6^1H-10-oxa-4,8-dithia-1(7,3)-indola-2(4,3),6(3,5)-dipyrazola-9(3,1)-naphthalenacyclotridecaphane-1^2-carboxylic acid], the concentration for half-maximal inhibition (IC50) on Mcl-1 (setting [3]) is 10 to 100 nM; in data set [2], more than 1000 nM. Regarding `Cc1[nH]nc2c1-c1c(Cl)ccc3c(c(C(=O)O)n(C)c13)CCCOc1cc(cc3ccccc13)SCc1cc(nn1C(C)C)CSC2` (single isomer, unassigned) [Example 9A, (Z)-1^6-Chloro-6^1-isopropyl-1^1,2^5-dimethyl-1^1H,2^1H,6^1H-10-oxa-4,8-dithia-1(7,3)-indola-2(4,3),6(3,5)-dipyrazola-9(3,1)-naphthalenacyclotridecaphane-1^2-carboxylic acid], the half-maximal inhibitory concentration (IC50) at Mcl-1 (setting [3]) was less than 10 nM; in data set [2] (Homo sapiens, NCI-H929, 72 h) it was 100 to 1000 nM.

With `Cc1c2c(nn1C)CSCc1cc(n(C(C)C)n1)CSc1cc(c3ccccc3c1)OCCCc1c(C(=O)O)n(C)c3c-2c(Cl)ccc13` (single isomer, unassigned) [Example 10A, (Z)-1^6-Chloro-6^1-isopropyl-1^1,2^1,2^5-trimethyl-1^1H,2^1H,6^1H-10-oxa-4,8-dithia-1(7,3)-indola-2(4,3),6(3,5)-dipyrazola-9(3,1)-naphthalenacyclotridecaphane-1^2-carboxylic acid], the half-maximal inhibitory concentration (IC50) is less than 10 nM at Mcl-1 (setting [3]) and less than 100 nM in data set [2] (Homo sapiens, NCI-H929, 72 h).

In the case of `Cc1c2c(nn1C)CSCc1cc(n[nH]1)CSc1cc(c3ccccc3c1)OCCCc1c(C(=O)O)n(C)c3c-2c(Cl)ccc13` (single isomer, unassigned) [Example 11B, (Z)-1^6-Chloro-1^1,2^1,2^5-trimethyl-1^1H,2^1H,6^1H-10-oxa-4,8-dithia-1(7,3)-indola-2(4,3),6(3,5)-dipyrazola-9(3,1)-naphthalenacyclotridecaphane-1^2-carboxylic acid], the figures for the concentration for half-maximal inhibition (IC50) (on Mcl-1 (Mcl-1 IC50 (nM)); in data set [2] (Homo sapiens)) were less than 10 nM and less than 100 nM, respectively. As for `Cc1c2c(nn1C)CSCc1cc(n(C)n1)CSc1cc(c3ccccc3c1)OCCCc1c(C(=O)O)n(C)c3c-2c(F)ccc13` (single isomer, unassigned) [Example 14A, (Z)-1^6-Fluoro-1^1,2^1,2^5,6^1-tetramethyl-1^1H,2^1H,6^1H-10-oxa-4,8-dithia-1(7,3)-indola-2(4,3),6(3,5)-dipyrazola-9(3,1)-naphthalenacyclotridecaphane-1^2-carboxylic acid], the IC50 at Mcl-1 (setting [3]) was less than 10 nM; in data set [2] (Homo sapiens, NCI-H929, 72 h), less than 100 nM.

As for `CCn1nc2cc1CSc1cc(c3ccccc3c1)OCCCc1c(C(=O)O)n(C)c3c(c(F)ccc13)-c1c(C)nn(C)c1CSC2` (single isomer, unassigned) [Example 15A, (Z)-6^1-Ethyl-1^6-fluoro-1^1,2^1,2^3-trimethyl-1^1H,2^1H,6^1H-10-oxa-4,8-dithia-1(7,3)-indola-2(4,5),6(3,5)-dipyrazola-9(3,1)-naphthalenacyclotridecaphane-1^2-carboxylic acid], the IC50 at Mcl-1 (setting [3]) was more than 100 nM; in data set [2] (Homo sapiens, NCI-H929, 72 h), more than 1000 nM. `Cc1nn(C)c2c1-c1c(F)ccc3c(c(C(=O)O)n(C)c13)CCCOc1cc(cc3ccccc13)SCc1cc(nn1C(C)C)CSC2` (single isomer, unassigned) [Example 16A, (Z)-1^6-Fluoro-6^1-isopropyl-1^1,2^1,2^3-trimethyl-1^1H,2^1H,6^1H-10-oxa-4,8-dithia-1(7,3)-indola-2(4,5),6(3,5)-dipyrazola-9(3,1)-naphthalenacyclotridecaphane-1^2-carboxylic acid]: the IC50 was less than 10 nM on Mcl-1 (setting [3]) and less than 100 nM in data set [2].

In the case of `Cc1nn(C)c2c1-c1c(F)ccc3c(c(C(=O)O)n(C)c13)CCCOc1cc(cc3ccccc13)SCc1cc(nn1CC(C)C)CSC2` (single isomer, unassigned) [Example 17A, (Z)-1^6-Fluoro-6^1-isobutyl-1^1,2^1,2^3-trimethyl-1^1H,2^1H,6^1H-10-oxa-4,8-dithia-1(7,3)-indola-2(4,5),6(3,5)-dipyrazola-9(3,1)-naphthalenacyclotridecaphane-1^2-carboxylic acid], the half-maximal inhibitory concentration (IC50) at Mcl-1 (setting [3]) is more than 100 nM; in data set [2] it was more than 1000 nM.

In the case of `Cc1nn(C)c2c1-c1c(F)ccc3c(c(C(=O)O)n(C)c13)CCCOc1cc(cc3ccccc13)SCc1cc(nn1CC1CC1)CSC2` (single isomer, unassigned) [Example 18A], the IC50 at Mcl-1 (setting [3]) was more than 100 nM; in data set [2] (Homo sapiens, NCI-H929, 72 h), more than 1000 nM. With `Cc1nn(C23CC(C2)C3)c2c1-c1c(Cl)ccc3c(c(C(=O)O)n(C)c13)CCCOc1cc(cc3ccccc13)SCc1cc(nn1C)CSC2` (single isomer, unassigned) [Example 20A, (Z)-2^1-(Bicyclo[1.1.1]pentan-1-yl)-1^6-chloro-1^1,2^3,6^1-trimethyl-1^1H,2^1H,6^1H-10-oxa-4,8-dithia-1(7,3)-indola-2(4,5),6(3,5)-dipyrazola-9(3,1)-naphthalenacyclotridecaphane-1^2-carboxylic acid], the 50% inhibitory concentration (IC50) on Mcl-1 (setting [3]) is 10 to 100 nM; in data set [2] it was more than 1000 nM. The like results for `Cc1nn(C23CC(C2)C3)c2c1-c1c(Cl)ccc3c(c(C(=O)O)n(C)c13)CCCOc1cc(cc3ccccc13)SCc1cc(nn1C)CSC2` (single isomer, unassigned) [Example 20B, (Z)-2^1-(Bicyclo[1.1.1]pentan-1-yl)-1^6-chloro-1^1,2^3,6^1-trimethyl-1^1H,2^1H,6^1H-10-oxa-4,8-dithia-1(7,3)-indola-2(4,5),6(3,5)-dipyrazola-9(3,1)-naphthalenacyclotridecaphane-1^2-carboxylic acid] were, in that order, less than 10 nM and less than 100 nM. As to `Cc1nn(C23CC(C2)C3)c2c1-c1c(Cl)ccc3c(c(C(=O)O)n(C)c13)CCCOc1cc(cc3ccccc13)SCc1cc(n[nH]1)CSC2` (single isomer, unassigned) [Example 21B, (Z)-2^1-(Bicyclo[1.1.1]pentan-1-yl)-1^6-chloro-1^1,2^3-dimethyl-1^1H,2^1H,6^1H-10-oxa-4,8-dithia-1(7,3)-indola-2(4,5),6(3,5)-dipyrazola-9(3,1)-naphthalenacyclotridecaphane-1^2-carboxylic acid], the IC50 on Mcl-1 (setting [3]) is less than 10 nM; in data set [2] (Homo sapiens, NCI-H929, 72 h), less than 100 nM.
